Data taken from patent US20250171437A1 (Agios Pharmaceuticals,Inc., priority 2022, published 2025).

Target: T1, human PAH with the R408W mutation (A375 R408W cells) (Homo sapiens, UniProt P00439, R408W)
T1 construct: expressed in transfected cells
T1 sequence (P00439 1-452 R408W): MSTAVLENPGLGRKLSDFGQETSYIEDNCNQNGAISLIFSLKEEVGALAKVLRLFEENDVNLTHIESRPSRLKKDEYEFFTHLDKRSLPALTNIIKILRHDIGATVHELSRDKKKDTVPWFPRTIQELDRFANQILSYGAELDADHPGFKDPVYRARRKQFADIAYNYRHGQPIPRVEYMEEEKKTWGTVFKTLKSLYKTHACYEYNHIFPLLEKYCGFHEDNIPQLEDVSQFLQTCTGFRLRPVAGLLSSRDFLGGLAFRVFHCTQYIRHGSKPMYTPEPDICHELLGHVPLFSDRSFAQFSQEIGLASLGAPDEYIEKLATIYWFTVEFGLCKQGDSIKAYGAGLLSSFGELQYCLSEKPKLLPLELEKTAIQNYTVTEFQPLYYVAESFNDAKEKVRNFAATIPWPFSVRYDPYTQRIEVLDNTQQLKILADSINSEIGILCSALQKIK
Test: Cell Based Phenylalanine Flux Assay
Conditions: A375 R408W cells; 24 hrs with compound, then 20 μM sepiapterin and 800 μM 13C9,15N-Phenylalanine for 4 hours; 13C-Tyrosine by LC-MS; average where tested multiple times
Method in brief: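 Puromycin-selected A375 line, lentiviral hPAH R408W; cmpd 24 h, 37 °C, 5% CO2, 0.5% DMSO; then 20 μM sepiapterin + 800 μM 13C9,15N-Phe, 4 h; media extracted in 80% MeCN; 13C-Tyr by LC-MS; AC50 from 10-pt curves.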

SMILES | AC50 [nM]
Cn1ccc(-c2nc(C(F)F)c(C(=O)N3CCc4[nH]cnc4[C@H]3c3nc4cccc(F)c4o3)o2)n1 [Example 591, (S)-(4-(difluoromethyl)-2-(1-methyl-1H-pyrazol-3-yl)oxazol-5-yl)(4-(7-fluorobenzo[d]oxazol-2-yl)-6,7-dihydro-1H-imidazo[4,5-c]pyridin-5(4H)-yl)methanone] | ≤ 500
Cn1ccc(-c2nc(C(F)F)c(C(=O)N3CCc4[nH]cnc4[C@@H]3c3nc4cccc(F)c4o3)o2)n1 [Example 592, (R)-(4-(difluoromethyl)-2-(1-methyl-1H-pyrazol-3-yl)oxazol-5-yl)(4-(7-fluorobenzo[d]oxazol-2-yl)-6,7-dihydro-1H-imidazo[4,5-c]pyridin-5(4H)-yl)methanone] | 500 to 1000
Cc1nc(-c2ccccn2)oc1C(=O)N1CCc2[nH]cnc2[C@@H]1c1nc2cccc(F)c2o1 [Example 593, (R)-(4-(7-fluorobenzo[d]oxazol-2-yl)-6,7-dihydro-1H-imidazo[4,5-c]pyridin-5(4H)-yl)(4-methyl-2-(pyridin-2-yl)oxazol-5-yl)methanone] | 1000 to 5000
Cc1nc(-c2ccccn2)oc1C(=O)N1CCc2[nH]cnc2[C@H]1c1nc2cccc(F)c2o1 [Example 594, (S)-(4-(7-fluorobenzo[d]oxazol-2-yl)-6,7-dihydro-1H-imidazo[4,5-c]pyridin-5(4H)-yl)(4-methyl-2-(pyridin-2-yl)oxazol-5-yl)methanone] | ≤ 500
Cc1nc(-c2cnn(C)c2)oc1C(=O)N1CCc2[nH]cnc2[C@@H]1c1nc2cccc(F)c2o1 [Example 595, (R)-(4-(7-fluorobenzo[d]oxazol-2-yl)-6,7-dihydro-1H-imidazo[4,5-c]pyridin-5(4H)-yl)(4-methyl-2-(1-methyl-1H-pyrazol-4-yl)oxazol-5-yl)methanone] | 1000 to 5000
Cc1nc(-c2cnn(C)c2)oc1C(=O)N1CCc2[nH]cnc2[C@H]1c1nc2cccc(F)c2o1 [Example 596, (S)-(4-(7-fluorobenzo[d]oxazol-2-yl)-6,7-dihydro-1H-imidazo[4,5-c]pyridin-5(4H)-yl)(4-methyl-2-(1-methyl-1H-pyrazol-4-yl)oxazol-5-yl)methanone] | ≤ 500
Cc1ncoc1C(=O)N1CCc2[nH]cnc2[C@@H]1c1nc2c(F)cccc2o1 [Example 600, (R)-(4-(4-fluorobenzo[d]oxazol-2-yl)-6,7-dihydro-1H-imidazo[4,5-c]pyridin-5(4H)-yl)(4-methyloxazol-5-yl)methanone] | 1000 to 5000
COc1cccc2oc([C@@H]3c4nc[nH]c4CCN3C(=O)c3nc(C(F)F)nn3C)nc12 [Example 601, (S)-(3-(difluoromethyl)-1-methyl-1H-1,2,4-triazol-5-yl)(4-(4-methoxybenzo[d]oxazol-2-yl)-6,7-dihydro-1H-imidazo[4,5-c]pyridin-5(4H)-yl)methanone] | 500 to 1000
CC(C)(O)c1nc(C(F)F)c(C(=O)N2CCc3[nH]cnc3[C@H]2c2nc3cc(Cl)cc(F)c3o2)o1 [Example 605, (S)-(4-(5-chloro-7-fluorobenzo[d]oxazol-2-yl)-6,7-dihydro-1H-imidazo[4,5-c]pyridin-5(4H)-yl)(4-(difluoromethyl)-2-(2-hydroxypropan-2-yl)oxazol-5-yl)methanone] | ≤ 500
O=C(c1ocnc1C(F)F)N1CCc2[nH]cnc2[C@@H]1c1nc2cc(Cl)cc(F)c2o1 [Example 607, (R)-(4-(5-chloro-7-fluorobenzo[d]oxazol-2-yl)-6,7-dihydro-1H-imidazo[4,5-c]pyridin-5(4H)-yl)(4-(difluoromethyl)oxazol-5-yl)methanone] | ≤ 500
O=C(c1ocnc1C(F)F)N1CCc2[nH]cnc2[C@H]1c1nc2cc(Cl)cc(F)c2o1 [Example 608, (S)-(4-(5-chloro-7-fluorobenzo[d]oxazol-2-yl)-6,7-dihydro-1H-imidazo[4,5-c]pyridin-5(4H)-yl)(4-(difluoromethyl)oxazol-5-yl)methanone] | ≤ 500
O=C(c1ccnn1C(F)F)N1CCc2[nH]cnc2[C@H]1c1nc2cc(F)cc(F)c2o1 [Example 609] | 500 to 1000
Cc1cccc2nc([C@@H]3c4nc[nH]c4CCN3C(=O)c3cnco3)oc12 [Example 611, (S)-(4-(7-methylbenzo[d]oxazol-2-yl)-6,7-dihydro-1H-imidazo[4,5-c]pyridin-5(4H)-yl)(oxazol-5-yl)methanone] | 500 to 1000
Cc1cccc2nc([C@H]3c4nc[nH]c4CCN3C(=O)c3cnco3)oc12 [Example 612, (R)-(4-(7-methylbenzo[d]oxazol-2-yl)-6,7-dihydro-1H-imidazo[4,5-c]pyridin-5(4H)-yl)(oxazol-5-yl)methanone] | 1000 to 5000
Cc1cccc2nc([C@@H]3c4nc[nH]c4CCN3C(=O)c3nc(C(F)F)nn3C)oc12 [Example 613, (S)-(3-(difluoromethyl)-1-methyl-1H-1,2,4-triazol-5-yl)(4-(7-methylbenzo[d]oxazol-2-yl)-6,7-dihydro-1H-imidazo[4,5-c]pyridin-5(4H)-yl)methanone] | ≤ 500
Cc1cccc2nc([C@H]3c4nc[nH]c4CCN3C(=O)c3nc(C(F)F)nn3C)oc12 [Example 614, (R)-(3-(difluoromethyl)-1-methyl-1H-1,2,4-triazol-5-yl)(4-(7-methylbenzo[d]oxazol-2-yl)-6,7-dihydro-1H-imidazo[4,5-c]pyridin-5(4H)-yl)methanone] | 1000 to 5000
CN1CCN(c2nc(C(F)F)c(C(=O)N3CCc4[nH]cnc4[C@H]3c3nc4cccc(F)c4o3)o2)CC1 [Example 617, (S)-(4-(difluoromethyl)-2-(4-methylpiperazin-1-yl)oxazol-5-yl)(4-(7-fluorobenzo[d]oxazol-2-yl)-6,7-dihydro-1H-imidazo[4,5-c]pyridin-5(4H)-yl)methanone] | ≤ 500
CN1CCN(c2nc(C(F)F)c(C(=O)N3CCc4[nH]cnc4[C@@H]3c3nc4cccc(F)c4o3)o2)CC1 [Example 618, (R)-(4-(difluoromethyl)-2-(4-methylpiperazin-1-yl)oxazol-5-yl)(4-(7-fluorobenzo[d]oxazol-2-yl)-6,7-dihydro-1H-imidazo[4,5-c]pyridin-5(4H)-yl)methanone] | 500 to 1000

The next lines start with the values.

AC50 [nM] | SMILES
≤ 500 | Cc1ncoc1C(=O)N1CCc2[nH]cnc2[C@H]1c1nc2ccc(F)cc2o1 [Example 597, (S)-(4-(6-fluorobenzo[d]oxazol-2-yl)-6,7-dihydro-1H-imidazo[4,5-c]pyridin-5(4H)-yl)(4-methyloxazol-5-yl)methanone]
1000 to 5000 | Cc1ncoc1C(=O)N1CCc2[nH]cnc2[C@@H]1c1nc2ccc(F)cc2o1 [Example 598, (R)-(4-(6-fluorobenzo[d]oxazol-2-yl)-6,7-dihydro-1H-imidazo[4,5-c]pyridin-5(4H)-yl)(4-methyloxazol-5-yl)methanone]
≤ 500 | Cc1ncoc1C(=O)N1CCc2[nH]cnc2[C@H]1c1nc2c(F)cccc2o1 [Example 599, (S)-(4-(4-fluorobenzo[d]oxazol-2-yl)-6,7-dihydro-1H-imidazo[4,5-c]pyridin-5(4H)-yl)(4-methyloxazol-5-yl)methanone]
500 to 1000 | COc1cccc2oc([C@H]3c4nc[nH]c4CCN3C(=O)c3nc(C(F)F)nn3C)nc12 [Example 602, (R)-(3-(difluoromethyl)-1-methyl-1H-1,2,4-triazol-5-yl)(4-(4-methoxybenzo[d]oxazol-2-yl)-6,7-dihydro-1H-imidazo[4,5-c]pyridin-5(4H)-yl)methanone]
≤ 500 | COc1cccc2oc([C@@H]3c4nc[nH]c4CCN3C(=O)c3ccnn3C(F)F)nc12 [Example 603, (S)-(1-(difluoromethyl)-1H-pyrazol-5-yl)(4-(4-methoxybenzo[d]oxazol-2-yl)-6,7-dihydro-1H-imidazo[4,5-c]pyridin-5(4H)-yl)methanone]
1000 to 5000 | COc1cccc2oc([C@H]3c4nc[nH]c4CCN3C(=O)c3ccnn3C(F)F)nc12 [Example 604, (R)-(1-(difluoromethyl)-1H-pyrazol-5-yl)(4-(4-methoxybenzo[d]oxazol-2-yl)-6,7-dihydro-1H-imidazo[4,5-c]pyridin-5(4H)-yl)methanone]
≤ 500 | CC(C)(O)c1nc(C(F)F)c(C(=O)N2CCc3[nH]cnc3[C@@H]2c2nc3cc(Cl)cc(F)c3o2)o1 [Example 606, (R)-(4-(5-chloro-7-fluorobenzo[d]oxazol-2-yl)-6,7-dihydro-1H-imidazo[4,5-c]pyridin-5(4H)-yl)(4-(difluoromethyl)-2-(2-hydroxypropan-2-yl)oxazol-5-yl)methanone]
≤ 500 | COc1ccc(-c2nc(C(F)F)c(C(=O)N3CCc4[nH]cnc4[C@@H]3c3nc4cccc(F)c4o3)o2)nc1 [Example 615, (R)-(4-(difluoromethyl)-2-(5-methoxypyridin-2-yl)oxazol-5-yl)(4-(7-fluorobenzo[d]oxazol-2-yl)-6,7-dihydro-1H-imidazo[4,5-c]pyridin-5(4H)-yl)methanone]
≤ 500 | COc1ccc(-c2nc(C(F)F)c(C(=O)N3CCc4[nH]cnc4[C@H]3c3nc4cccc(F)c4o3)o2)nc1 [Example 616, (S)-(4-(difluoromethyl)-2-(5-methoxypyridin-2-yl)oxazol-5-yl)(4-(7-fluorobenzo[d]oxazol-2-yl)-6,7-dihydro-1H-imidazo[4,5-c]pyridin-5(4H)-yl)methanone]
